From ChEMBL document CHEMBL1201862, “PubChem BioAssay data set” (2004)
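Dose response: 5 concentrations. Exposure: 48 h. Format: 96-well plates. Endpoint: linear interpolation; highest concentration if not reached. Abbreviation: GI50, concentration required for 50% inhibition of growth.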 Active and inactive are the calls of the source. No stated cut-off is given here; in the data, active = GI50 up to about 1.1 µM and inactive = higher.

Legend:
Assay in all cases: growth of human tumour cells (NCI), 48 h
[1] = test system: DLD-1
[2] = test system: HOP-18
[3] = test system: KM-20L2
[4] = test system: RXF 631
[5] = test system: LXFL 529
[6] = test system: M19-MEL
[7] = test system: XF498
[8] = test system: SNB-78

Measured: GI50

CCCCC(C)C(OC(=O)CC(CC(=O)O)C(=O)O)C(CC(C)CC(O)CCCCC(O)CC(O)C(C)N)OC(=O)CC(CC(=O)O)C(=O)O (centres undefined)
inactive: [1] > 100 µM | [2] > 100 µM | [3] > 100 µM | [4] > 100 µM | [5] > 100 µM | [6] > 100 µM

O=C1CNC(=O)c2[nH]cnc2N1
inactive: [1] > 100 µM | [2] > 100 µM | [4] 39.9 µM | [7] 49.3 µM | [5] > 100 µM | [6] > 100 µM | [8] > 100 µM

CN1C(c2ccccc2)CS(=O)(=O)CS1(=O)=O (centres undefined)
inactive: [1] > 100 µM | [2] > 100 µM | [3] > 100 µM | [4] > 100 µM | [7] > 100 µM | [5] > 100 µM | [6] > 100 µM | [8] > 100 µM

COC(=O)C1=C(C(=O)OC)N(C(C)C)[C@H]2C(C(=O)OC)=C(C(=O)OC)N(C(C)C)[C@@H]12
inactive: [1] > 100 µM | [2] > 100 µM | [3] > 100 µM | [4] > 100 µM | [7] > 100 µM | [5] > 100 µM | [6] > 100 µM | [8] > 100 µM

CC(=O)NC(CCCCNC(=O)N(C)N=O)C(=O)NCc1ccccc1 (centres undefined)
inactive: [1] > 100 µM | [3] > 100 µM | [4] > 100 µM | [7] > 100 µM | [5] > 100 µM | [6] > 100 µM | [8] > 100 µM

COC(=O)C(Cc1nc2ccc(Cl)cc2nc1O)C(=O)C(=O)Nc1cc(C)ccc1C (centres undefined)
inactive: [1] > 100 µM | [2] > 100 µM | [3] > 100 µM | [4] > 100 µM | [7] > 100 µM | [5] > 100 µM | [6] > 100 µM | [8] > 100 µM

Clc1cc(Cl)cc(Nc2nc3ccccc3nc2-c2cccs2)c1
inactive: [1] 41.4 µM | [2] 28.5 µM | [3] > 10 µM | [4] 15.8 µM | [7] 28.1 µM | [5] 35.8 µM | [6] 24.2 µM | [8] 62.5 µM

O=C(O)CN(c1ccccc1)S(=O)(=O)c1ccc([N+](=O)[O-])cc1
inactive: [1] > 100 µM | [2] > 100 µM | [3] > 100 µM | [4] > 100 µM | [7] > 100 µM | [5] > 100 µM | [6] > 100 µM
